Experimental data published in PubChem BioAssay AID2060895 (Molecular Pharmacology Branch, DTP, NCI, 2025).
Where “and” joins values, the source holds several entries; their conditions need not be identical. Identical values can stand only once. Values belong to the compound of their own block, whether it stands above or below them.

Tested on: PDC 899932-113-R3-J6 complex spheroid viability
Test: Anticancer human tumor 899932-113-R3-J6-PDC patient-derived melanoma cell line growth inhibition [RAS]
Conditions: for viability, T/C: stronger effect = lower value
In short: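 Multi-cell-type spheroids: tumor cells plus HUVEC endothelial cells and mesenchymal stem cells. RAS-pathway inhibitors were combined with targeted agents, each dosed in half-log steps down from clinical Cmax, or from 10 microM when Cmax was unknown.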
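For viability, T/C in this document: spheroids exposed to agents for seven days before readout; 100% = DMSO vehicle control wells.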

IC50 (curve of first compound, second compound 0.0316 µM): > 1000 nM
IC50 (curve of first compound, second compound 0.1 µM): > 1000 nM
IC50 (curve of first compound, second compound 0.316 µM): > 1000 nM
IC50 (curve of first compound, second compound 1 µM): > 1000 nM
IC50 (curve of first compound, second compound 3.16 µM): > 1000 nM
IC50 (curve of first compound, second compound 10 µM): > 1000 nM
SMILES: C=CC(=O)Nc1cc(Nc2nccc(-c3cn(C)c4ccccc34)n2)c(OC)cc1N(C)CCN(C)C + C#Cc1c(F)ccc2cc(O)cc(-c3ncc4c(N5CC6CCC(C5)N6)nc(OCC56CCCN5CC(F)C6)nc4c3F)c12
viability, T/C (second compound 0.0316 µM, first compound 0.00316 µM): 117%
viability, T/C (second compound 0.0316 µM, first compound 0.01 µM): 110%
viability, T/C (second compound 0.0316 µM, first compound 0.0316 µM): 109%
viability, T/C (second compound 0.0316 µM, first compound 0.1 µM): 103%
viability, T/C (second compound 0.0316 µM, first compound 0.316 µM): 110%
viability, T/C (second compound 0.0316 µM, first compound 1 µM): 95.6%
viability, T/C (second compound 0.1 µM, first compound 0.00316 µM): 103%
viability, T/C (second compound 0.1 µM, first compound 0.01 µM): 107%
viability, T/C (second compound 0.1 µM, first compound 0.0316 µM): 106%
viability, T/C (second compound 0.1 µM, first compound 0.1 µM): 100%
viability, T/C (second compound 0.1 µM, first compound 0.316 µM): 113%
viability, T/C (second compound 0.1 µM, first compound 1 µM): 103%
viability, T/C (second compound 0.316 µM, first compound 0.00316 µM): 111%
viability, T/C (second compound 0.316 µM, first compound 0.01 µM): 106%
viability, T/C (second compound 0.316 µM, first compound 0.0316 µM): 106%
viability, T/C (second compound 0.316 µM, first compound 0.1 µM): 107%
viability, T/C (second compound 0.316 µM, first compound 0.316 µM): 111%
viability, T/C (second compound 0.316 µM, first compound 1 µM): 104%
viability, T/C (second compound 1 µM, first compound 0.00316 µM): 114%
viability, T/C (second compound 1 µM, first compound 0.01 µM): 113%
viability, T/C (second compound 1 µM, first compound 0.0316 µM): 119%
viability, T/C (second compound 1 µM, first compound 0.1 µM): 122%
viability, T/C (second compound 1 µM, first compound 0.316 µM): 105%
viability, T/C (second compound 1 µM, first compound 1 µM): 115%
viability, T/C (second compound 3.16 µM, first compound 0.00316 µM): 115%
viability, T/C (second compound 3.16 µM, first compound 0.01 µM): 116%
viability, T/C (second compound 3.16 µM, first compound 0.0316 µM): 114%
viability, T/C (second compound 3.16 µM, first compound 0.1 µM): 117%
viability, T/C (second compound 3.16 µM, first compound 0.316 µM): 112%
viability, T/C (second compound 3.16 µM, first compound 1 µM): 114%
viability, T/C (second compound 10 µM, first compound 0.00316 µM): 123%
viability, T/C (second compound 10 µM, first compound 0.01 µM): 118%
viability, T/C (second compound 10 µM, first compound 0.0316 µM): 110%
viability, T/C (second compound 10 µM, first compound 0.1 µM): 128%
viability, T/C (second compound 10 µM, first compound 0.316 µM): 120%
viability, T/C (second compound 10 µM, first compound 1 µM): 93.7%

IC50 (curve of compound): > 1000 nM
SMILES: C=CC(=O)Nc1cc(Nc2nccc(-c3cn(C)c4ccccc34)n2)c(OC)cc1N(C)CCN(C)C
viability, T/C (compound 0.00316 µM): 109% [middle of 4 runs]
viability, T/C (compound 0.01 µM): 98.4% [middle of 4 runs]
viability, T/C (compound 0.0316 µM): 101% [middle of 4 runs]
viability, T/C (compound 0.1 µM): 104% and 102% (2×) and 101%
viability, T/C (compound 0.316 µM): 106% [middle of 4 runs]
viability, T/C (compound 1 µM): 100% [middle of 4 runs]
